According to PubChem BioAssay (NCI):
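48-hour exposure; five concentrations; linearly interpolated endpoints. TGI: total growth inhibition.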

Legend:
Assay in all cases: DTP human tumour cell line panel, 48 h
OVCAR-8 ovarian = system: OVCAR-8 ovarian
HCC-2998 colon = system: HCC-2998 colon
SF-295 CNS = system: SF-295 CNS
CCRF-CEM leukemia = system: CCRF-CEM leukemia
MDA-N = system: MDA-N
RXF 393 renal = system: RXF 393 renal
SK-MEL-2 melanoma = system: SK-MEL-2 melanoma
DU-145 prostate = system: DU-145 prostate
HCT-116 colon = system: HCT-116 colon
BT-549 breast = system: BT-549 breast
MDA-MB-231 breast = system: MDA-MB-231 breast
MCF7 breast = system: MCF7 breast
KM12 colon = system: KM12 colon
OVCAR-5 ovarian = system: OVCAR-5 ovarian
786-0 renal = system: 786-0 renal
UACC-62 melanoma = system: UACC-62 melanoma
U251 CNS = system: U251 CNS
RPMI-8226 leukemia = system: RPMI-8226 leukemia
CAKI-1 renal = system: CAKI-1 renal
NCI-H226 lung = system: NCI-H226 lung
M14 melanoma = system: M14 melanoma
NCI-H23 lung = system: NCI-H23 lung
UO-31 renal = system: UO-31 renal
EKVX NSCLC = system: EKVX NSCLC
SNB-75 CNS = system: SNB-75 CNS
SK-MEL-5 melanoma = system: SK-MEL-5 melanoma
SK-MEL-28 melanoma = system: SK-MEL-28 melanoma
HOP-62 NSCLC = system: HOP-62 NSCLC
SF-268 CNS = system: SF-268 CNS
SNB-19 CNS = system: SNB-19 CNS
SF-539 CNS = system: SF-539 CNS
OVCAR-3 ovarian = system: OVCAR-3 ovarian
TK-10 renal = system: TK-10 renal
HS 578T breast = system: HS 578T breast
HCT-15 colon = system: HCT-15 colon
COLO 205 colon = system: COLO 205 colon
PC-3 prostate = system: PC-3 prostate
SK-OV-3 ovarian = system: SK-OV-3 ovarian
OVCAR-4 ovarian = system: OVCAR-4 ovarian
T-47D breast = system: T-47D breast
A498 renal = system: A498 renal
K-562 leukemia = system: K-562 leukemia
NCI-H522 lung = system: NCI-H522 lung
SW-620 colon = system: SW-620 colon
UACC-257 melanoma = system: UACC-257 melanoma
NCI-H460 lung = system: NCI-H460 lung
SN12C renal = system: SN12C renal
SR leukemia = system: SR leukemia
IGROV1 ovarian = system: IGROV1 ovarian
MDA-MB-435 = system: MDA-MB-435
MOLT-4 leukemia = system: MOLT-4 leukemia
HT29 colon = system: HT29 colon
NCI/ADR-RES ovarian = system: NCI/ADR-RES ovarian
A549 NSCLC = system: A549 NSCLC
HOP-92 NSCLC = system: HOP-92 NSCLC
ACHN renal = system: ACHN renal

## Cc1ccc(N=NC(=Nc2ccccc2)c2ccc(N(CCC#N)CCC#N)cc2)cc1
OVCAR-8 ovarian
  TGI: > 100 µM
HCC-2998 colon
  TGI: 48.6 µM
SF-295 CNS
  TGI: 92.4 µM
CCRF-CEM leukemia
  TGI: > 100 µM
MDA-N
  TGI: > 100 µM
RXF 393 renal
  TGI: 80.1 µM
SK-MEL-2 melanoma
  TGI: 48 µM
DU-145 prostate
  TGI: > 100 µM
HCT-116 colon
  TGI: > 100 µM
BT-549 breast
  TGI: 47.3 µM
MDA-MB-231 breast
  TGI: 55.8 µM
MCF7 breast
  TGI: 79.2 µM
KM12 colon
  TGI: > 100 µM
OVCAR-5 ovarian
  TGI: > 100 µM
786-0 renal
  TGI: > 100 µM
UACC-62 melanoma
  TGI: 58.9 µM
U251 CNS
  TGI: 71.2 µM
RPMI-8226 leukemia
  TGI: > 100 µM
CAKI-1 renal
  TGI: > 100 µM
NCI-H226 lung
  TGI: > 100 µM
M14 melanoma
  TGI: > 100 µM
NCI-H23 lung
  TGI: 43.9 µM
UO-31 renal
  TGI: > 100 µM
EKVX NSCLC
  TGI: > 100 µM
SNB-75 CNS
  TGI: > 100 µM
SK-MEL-5 melanoma
  TGI: 47 µM
SK-MEL-28 melanoma
  TGI: > 100 µM
HOP-62 NSCLC
  TGI: > 100 µM
SF-268 CNS
  TGI: > 100 µM
SNB-19 CNS
  TGI: > 100 µM
SF-539 CNS
  TGI: > 100 µM
OVCAR-3 ovarian
  TGI: 75.1 µM
TK-10 renal
  TGI: 74.9 µM
HS 578T breast
  TGI: > 100 µM
HCT-15 colon
  TGI: > 100 µM
COLO 205 colon
  TGI: > 100 µM
PC-3 prostate
  TGI: 59.9 µM
SK-OV-3 ovarian
  TGI: > 100 µM
OVCAR-4 ovarian
  TGI: > 100 µM
T-47D breast
  TGI: > 100 µM
A498 renal
  TGI: > 100 µM
K-562 leukemia
  TGI: > 100 µM
NCI-H522 lung
  TGI: 45.2 µM
SW-620 colon
  TGI: > 100 µM
UACC-257 melanoma
  TGI: 54 µM
NCI-H460 lung
  TGI: 45.5 µM
SN12C renal
  TGI: > 100 µM
SR leukemia
  TGI: > 100 µM
IGROV1 ovarian
  TGI: 57.1 µM
MDA-MB-435
  TGI: > 100 µM
MOLT-4 leukemia
  TGI: > 100 µM
HT29 colon
  TGI: > 100 µM
NCI/ADR-RES ovarian
  TGI: > 100 µM
A549 NSCLC
  TGI: 80.7 µM
HOP-92 NSCLC
  TGI: 64.8 µM
ACHN renal
  TGI: > 100 µM
